Like-named read-outs stand apart in the source and are kept apart here.

For data set [1], the system named is NHDF (normal human dermal fibroblasts). Put plainly: Determination of EC50 values, MTS assay, NHDF. To be noted: read-out: EC50 (±SE). The class given is cell-based. On the procedure:
(§1) NHDFs were purchased from Lonza Group Ltd.—Lonza Verviers (Verviers, Belgium), and the human malignant melanoma (Me45) cell line was obtained from the Maria Skłodowska-Curie Memorial Cancer Center and National Institute of Oncology Branch Gliwice, Poland. […] During the culturing periods, cells were passaged before confluency reached 80% in culture flasks and washed regularly with PBS.
(§2) The EC50 values of genistein and its derivatives for both cell lines were determined using the MTS assay (Cell Titer 96 AQueous One Solution Cell Proliferation Assay, Promega, Madison, WI, USA). Cells were seeded in 96-well plates (5 × 10^3 cells/well) and incubated for 24 h at 37 °C in 5% CO2. Subsequently, the cells were treated with twelve concentrations of each compound ranging from 1–100 µM for 48 h at 37 °C in 5% CO2. Afterwards, the medium, including the investigated compounds, was removed from all wells and replaced with PBS. In total, 20 µL of MTS was added to each well. Plates were then incubated for 2 h at 37 °C in 5% CO2. The absorbance was measured at λ = 490 nm using an Epoch microplate reader (BioTek, Winooski, VT, USA). EC50 values were calculated using Matlab software (Matlab R2022a, MathWorks, Natick, MA, USA).
On the technique in general: Tetrazolium dyes change colour on reduction, which living cells bring about.

Data set [2] concerns Me45 (human malignant melanoma cell line). As to the kind of experiment: Determination of EC50 values, MTS assay, Me45. The class given is cell-based. Conditions: read-out: EC50 (±SE). As for the experimental part:
as §1, §2

Another data set can be described thus: Lipophilicity (Log P). The format is physicochemical. From the text:
Table 2 Genistein and its derivatives investigated in the study. | column: Log P

The nature of data set [3]: Protective potential against UV irradiation, MTS assay, Me45. The format is cell-based. Conditions: human. As for the experimental part:
Cells from each cell line were seeded in three groups (0, 24, and 48 h) in 96-well plates (5 × 10^3 cells/well) and incubated for 24 h at 37 °C in 5% CO2. Afterwards, the medium in all wells was removed, and cells were treated with 5 µM of genistein, 4′-L-Gen, W-Bn-Gen, or W5-Gen. The chemicals added to the 0 h time point plates were dissolved in PBS. DMEM was used to prepare the chemical solutions for the 24- and 48-h plates.
After incubation, half of the wells on each plate were irradiated with UVC 2 kJ/m^2 in a Crosslinker CL-1000 UV (UVP) device (Ultra-Violet Products Ltd., Cambridge, UK). The MTS assay was performed immediately after irradiation for 0 h plates and after 24 and 48 h of incubation for the other two time points. Before conducting the MTS test, the medium in the 24 and 48 h plates was discarded and replaced with PBS.

Data set [4] has as its system Me45 cells. Put plainly: Cell cycle analysis (flow cytometry, PI), Me45. The class given is cell-based, human. Conditions: 5 µM, 48 h, not exposed to UV. On the procedure:
(§3) Cells from both cell lines were seeded in 12-well plates (2.5 × 10^4 cells/well) and incubated for 24 h at 37 °C in 5% CO2. The medium in the wells was replaced with fresh DMEM. Cells were treated with 5 µM of genistein, 4′-L-Gen, W5-Gen, or WBn-Gen for 48 h. Medium containing the test substances was removed, and the cells were collected by trypsinization (followed by neutralization of trypsin with medium) in Eppendorf tubes. Tubes were centrifuged (2000 rpm, 3 min), and the supernatant was removed. Subsequently, the fixation of cells in frozen 96% ethanol took place. The ethanol was removed, and cells were washed twice in PBS. Cells were suspended in tubes using 50 µL of […] RNase and then incubated for 15 min at room temperature. Cells were stained with […] propidium iodide solution in PBS and incubated for 20 min at room temperature. Directly before flow cytometry analysis, cells were agitated on a vortex mixer. Cell cycle analysis was performed using a BD FACS Canto flow cytometer, which counted 10,000 cells from every probe. The number of cells in each cell cycle phase was counted by measuring the […] intensity using Diva software (Bd FACSDiva v9.0, Becton Dickinson, Franklin Lakes, NJ, USA).
(In general: In flow cytometry, cells or beads pass a laser one at a time.)

Data set [5] concerns NHDFs. Put plainly: Genotoxicity, micronucleus (MN) assay, NHDF. The format is cell-based, human. To be noted: 48 h, 5 µM. As for the experimental part: (§4) Both cell types were seeded in 6-well plates (2.5 × 10^4 cells/well) and incubated for 24 h at 37 °C in 5% CO2. After incubation, the medium in the wells was changed to 5 µM solutions of genistein, 4′-L-Gen, W-Bn-Gen, or W5-Gen in DMEM and incubated for 1 h at 37 °C in 5% CO2. Half of the treated cells were irradiated, as described above. Afterwards, all the cells were treated with […] cytochalasin B and incubated for 48 h at 37 °C in 5% CO2. Subsequently, cells from each well were trypsinized, washed twice in PBS, and mixed with frosted (−20 °C) Carnoy’s solution (methanol: acetic acid, v/v 3:1). After 2 h, 50 µL of each suspension was placed on a microscopic slide and dried. Before microscopic analysis, slides were stained with 2 µg/mL DAPI (dissolved in DMSO) and covered with cover glasses. Slides were observed using a fluorescent microscope (Zeiss Axio Imager. M1 with EC Plan- NEOFLUAR 40× objective, Zeiss, Oberkochen, Germany). A total of 500 cells on each slide were counted, taking into account binucleated, binucleated with MN, mononucleated, and apoptotic cells. The NDI was calculated using a modified method by Eastmond and Tucker (1989) according to the following Equation (2):(2) NDI=MNu+2(Bnu+BNuMN)/∑cells where MNu is the number of cells with one nucleus, BNu is the number of binucleated cells, and BNuMN is the number of binucleated cells with MN.

The subject of data set [6] is NHDFs. Put plainly: Cell cycle analysis (flow cytometry, PI), NHDF. To be noted: 5 µM, 48 h, not exposed to UV. The format is cell-based, human. As for the experimental part: as §3
Data set [7] deals with Me45 cells. Put plainly: Genotoxicity, micronucleus (MN) assay, Me45. The format is cell-based, human. Conditions: 5 µM, 48 h, exposed and not exposed to UV radiation. As for the experimental part:
as §4

Data set [8] has as its system estrogen receptors ERα and ERβ. To be noted: cited from earlier work.
The mark [9] stands for this setting: 48 h treatment, 1–100 µM, concentration causing 50% toxicity.
Setting [10] is: Me45, 48 h treatment, 1–100 µM, concentration causing 50% toxicity.

For orientation: EC50 means the concentration needed to bring the measured effect to its halfway point. Regarding `CCCCCOC(=O)Oc1cc(O)c2c(=O)c(-c3ccc(O)cc3)coc2c1` [Compound W5-Gen, n-pentyl-7-O-genistein carbonate], the EC50 is 5.6 µM in data set [1] (setting [9]) and 92.2 µM in data set [2] (setting [10]). This molecule returned a logP in the data set “Lipophilicity (Log P)” of 3.96.
Usually mortality stands for the share of the test organisms that died. As a reminder, the viability is a read-out of living cells in per cent, often relative to untreated cells. As for `CCCCCCCCCCCC(=O)Oc1ccc(-c2coc3cc(O)cc(O)c3c2=O)cc1` [4′-L-Gen, 4′-genistein dodecanate], the EC50 came out at 6.5 µM in data set [1] (48 h) and 60.5 µM in data set [2] (48 h). In the data set “Lipophilicity (Log P)”, this molecule yielded a logP of 5.71. The same molecule showed a mortality at 0 h, 5 µM in [3] of about 10%. Moreover, the viability at 48 h, 5 µM in [3] (Me45, 5 µM, after 48 h, both exposed and not exposed to UV radiation, read-out: viability of treated cells much lower than in the control samples) is about 50%. The “suppression of the G1 phase, ranking (in words)” value with Me45 cells [4] is reported as “weakest effect”.
Turning to `O=C(OCc1ccccc1)Oc1cc(O)c2c(=O)c(-c3ccc(O)cc3)coc2c1` [WBn-Gen, bezyl-7-O-genistein carbonate], the figures for the EC50 in [1] (setting [9]) and in data set [2] (setting [10]) were 6 µM and 71.2 µM, respectively. Besides, the logP in the data set “Lipophilicity (Log P)” turned out to be 4.04. Moreover, the “DNA damage (percentage of binucleated cells with MN)” value with NHDFs [5] (human) is reported as 10.5–11%. The “suppression of the cell cycle in the G2/M phase, cells compared to the controls” value in the data set with NHDFs [6] is 6%.
As to `O=c1c(-c2ccc(O)cc2)coc2cc(O)cc(O)c12` [Gen, Genistein], the EC50 came to 8.6 µM in data set [1] (48 h) and 78.2 µM in [2] (48 h). Besides, the logP in the data set “Lipophilicity (Log P)” (method not stated, read-out: Log P) is 1.74. In data set [3] (Me45, 5 µM, shortest incubation (first time point, before the 24 h reading), read-out: mortality compared to control untreated cells), the mortality at 0 h, 5 µM is 50%. In addition, the figures for the “effect on number of cells with MN (in words)” value in the data set with NHDFs [5] (NHDF) and with Me45 cells [7] were “decreased the number of cells with MN” and “increases the number of cells with MN”, respectively. Besides, the “suppression of the G1 phase, ranking (in words)” value with Me45 cells [4] is “strongest effect”. Besides, the “binding to ERβ versus ERα, times more strongly” value in [8] is given as 20–30 times.
